# In US20100197628A1, “METHODS OF TREATING PSYCHIATRIC, SUBSTANCE ABUSE, AND OTHER DISORDERS USING COMBINATIONS CONTAINING OMEGA-3 FATTY ACIDS” (priority 2003, published 2010):
# “Also recorded” adds a separate entry of the source. Counter-ions that a name gives are not always drawn.
# What was measured:
# male Sprague-Dawley rats = assay: Forced swim test (FST): latency to become immobile and behavioral sampling; assay type: in vivo, rat; conditions: re-test (day 2), DMI 10 mg/kg, FLX 20 mg/kg; for latency to become immobile: 3 IP injections, CIT 5.0 mg/kg; for occurrences of climbing (behavioral sampling) / occurrences of swimming (behavioral sampling) / occurrences of immobility (behavioral sampling): CIT 5.0 mg/kg IP
# Description: The behavioral effects of the combination of uridine and omega-3 fatty acids were also evaluated in rats using the forced swim test (FST). This assay identifies in rodents treatments that have antidepressant effects in humans (Porsolt et al. Nature 266:730-732 1977; Carlezon et al. Biol. Psychiatry 51:882-889, 2002). Uridine was administered using systemic injection while omega-3 fatty acids were administered by supplementation within the diet for various periods of time (3, 10, or 30 days). The effects of uridine in rats maintained on the omega-3 fatty acid-enriched diet were also evaluated to determine if these effects were additive. […] The efficacy of each treatment in the FST was evaluated using two separate scoring methods: latency to become immobile, a simple and rapid method that identifies agents with antidepressant effects ([…] et al. J Neurosci 21:7397-7403 2001), and behavioral sampling, a more complex method that differentiates antidepressant drugs according to their pharmacological mechanisms (Detke et al. Psychopharmacology 121:66-72 1995). Finally, treatments with antidepressant-like effects in the FST were evaluated for non-specific effects on activity in an open field, which might complicate interpretation of the data from the swimming studies. Rats: A total of 197 male Sprague-Dawley rats (Charles River Laboratories, Boston Mass.) were used in these studies. The rats were housed in groups of four and weighed 325-375 gm at the time of behavioral testing. Rats were maintained on a 12 h light (0700-1900 h)-12 h dark cycle with free access to food and water except during testing. Experiments were conducted in accordance with the 1996 Guide for the Care and Use of Laboratory Animals (NIH) and McLean Hospital policies. Drugs: Dosages of desipramine HCl (DMI), fluoxetine HCl (FLX), citalopram HBr (CIT), and uridine (URI) were administered in a distilled water vehicle (VEH) at a volume of 1 cc/kg. All drugs were purchased from RBI-Sigma (St. Louis, Mo.) except CIT, which was a gift of Forest Laboratories (New York, N.Y.). […] The diets were equivalent in overall fat, protein, carbohydrate, and caloric content. Forced Swim Test (FST): One hundred-sixty seven rats were used in the FST studies, which were conducted as described previously (Carlezon et al. Biol. Psychiatry 51:882-889, 2002) with minor modifications. The FST is a two-day procedure in which rats swim under conditions in which escape is not possible. On the first day, rats are placed in clear, 65 cm tall-25 cm diameter cylinders filled to 48 cm with 25° C. water. The rats initially struggle to escape from the water, but eventually they adopt a posture of immobility in which they make only the movements necessary to keep their heads above water. After 15 min of forced swimming, the rats are removed from the water, dried with towels, and placed in a warmed enclosure for 30 min. The cylinders are emptied and cleaned between rats. When the rats are re-tested 24 hours later under identical conditions in 5 min sessions, immobility is increased. Treatment with standard antidepressant drugs within the 24 hr period between the first exposure to forced swimming and re-testing can attenuate facilitated immobility, an effect correlated with antidepressant efficacy in humans (Porsolt et al. Nature 266:730-732 1977; Detke et al. Psychopharmacology 121:66-72 1995, Carlezon et al. Biol. Psychiatry 51:882-889, 2002). Rats tested with DMI, FLX, CIT, or URI received 3 separate intraperitoneal (IP) injections of drug (or VEH), at 1 hr, 19 hr, and 23 hr after the first exposure to forced swimming. This commonly used regimen is sensitive to the antidepressant-like effects of many standard agents (Porsolt et al. Nature 266:730-732 1977; Detke et al. Psychopharmacology 121:66-72 1995; Carlezon et al. Biol. Psychiatry 51:882-889, 2002). […] There were 7-12 rats per treatment condition, and separate rats were used for each treatment regimen. […]
# depressed subjects = assay: 17-item Hamilton Depression Rating Scale (HDRS), eight weeks of treatment; assay type: in vivo, human
# Description: In a second study, twelve depressed subjects (mean age 40) received 500 mg of an oral formulation of CDP-choline twice daily for eight weeks.
# [1] = eight weeks, CDP-choline 500 mg twice daily, fluoxetine 20 mg/day
SMILES,latency to become immobile (male Sprague-Dawley rats; HBr),occurrences of climbing (behavioral sampling) (male Sprague-Dawley rats),occurrences of swimming (behavioral sampling) (male Sprague-Dawley rats),occurrences of immobility (behavioral sampling) (male Sprague-Dawley rats; HBr),latency to become immobile (male Sprague-Dawley rats; HCl),occurrences of climbing (behavioral sampling) (male Sprague-Dawley rats; HCl),occurrences of immobility (behavioral sampling) (male Sprague-Dawley rats; HCl),occurrences of swimming (behavioral sampling) (male Sprague-Dawley rats; HCl),"mean 17-item HDRS score with eight weeks of treatment (depressed subjects; CDP-choline 500 mg oral twice daily, fluoxetine open label 20 mg/day, p<0.0001)","mean 17-item HDRS score before treatment (depressed subjects; baseline, CDP-choline 12 subjects, fluoxetine 41 subjects)",complete responses (subjects/total) (depressed subjects; [1]),"complete responses, share of subjects (depressed subjects; [1])","latency to become immobile (male Sprague-Dawley rats; listed as FLX, HCl)","occurrences of immobility (behavioral sampling) (male Sprague-Dawley rats; listed as FLX, HCl)"
"CN(C)CCCC1(c2ccc(F)cc2)OCc2cc(C#N)ccc21 (stereo not shown) [CIT, citalopram HBr]",increased latencies to become immobile,without affecting climbing,increased swimming,reduced immobility; also recorded: decreased immobility,–,–,–,–,–,–,–,–,–,–
"CNCCCN1c2ccccc2CCc2ccccc21 [DMI, desipramine HCl]",–,–,–,–,increased latencies to become immobile,increased climbing; also recorded: increases in occurrences of climbing,reduced immobility; also recorded: decreases in occurrences of immobility,without affecting occurrences of swimming,–,–,–,–,–,–
"CNCCC(Oc1ccc(C(F)(F)F)cc1)c1ccccc1 (stereo not shown) [fluoxetine, fluoxetine HCl]",–,without affecting climbing,increased swimming,–,–,–,–,–,11±6,21±4,17/41,41%,increased latencies to become immobile,reduced immobility; also recorded: decreased immobility
